The text below walks through data of patent publication US20210299094A1, “METHODS OF UPREGULATING TIPARP AS ANTICANCER STRATEGIES” (CORNELL UNIVERSITY, priority 2018, published 2021).

Structures are written as SMILES. pIC50: −log10 of the molar value. Read-outs that look alike come from different tables or passages of the source. Where a SMILES comes first, the peptide text is derived from it. The star is where a group is joined. Cbz = O=C(OCc1ccccc1)*

In series [1] the test system is TiPARP mRNA. As for the experimental part: (§1) Quantitative Real Time PCR (qRT-PCR)
(§2) Total RNA. was isolated using RNeasy Mini kit (Qiagen) according to the manufacturer's instructions. 0.2 μg sample of total RNA was employed for cDNA synthesis using the Superscript III First-Strand Synthesis kit (Invitrogen) following the manufacturer's instructions. For quantitative real-time PCR analysis, iTaq Universal SYBR Green Supermix (Bio-Rad) was used following the manufacturer's instructions. The reaction was performed with QuantStudio™ 7 Flex Real-Time PCR System (APPLIED BIOSYSTEMS™). In each run, melt curve analysis was performed to ensure the amplification of a single product. The relative expression of each gene, normalized to actin, was calculated using the 2^−ΔΔCt method. The following primers were used for qRT-PCR: VEGF: 5′-[…]-3′ (SEQ ID NO: 24) and 5′-[…]-3′ (SEQ ID NO: 25); GLUT1: 5′-[…] CTAAA-3′ (SEQ ID NO: 26) and 5′˜[…]-3′ (SEQ ID NO: 27); PDK1: 5′-[…]-3′ (SEQ ID NO: 28) and 5′-[…]-3′ (SEQ ID NO: 29); WSBJ: 5′-[…]-3′ (SEQ ID NO: 30) and 5′-[…]-3′ (SEQ ID NO: 31); LDHA: 5′-[…]-3′ (SEQ ID NO: 32) and 5′-[…] CAG-3′ (SEQ ID NO: 33); CXCR4: 5′-[…]-3′ (SEQ ID NO: 34) and 5′-[…]-3′ (SEQ ID NO: 35); TIPARP: 5′-[…]-3′ (SEQ ID NO: 36) and 5′-[…]-3′ (SEQ ID NO: 37), ACTIN: 5′-[…]-3′ (SEQ ID NO: 38) and 5′-[…]-3′ (SEQ ID NO: 39).

Series [2] relates to TiPARP mRNA. The protocol:
as §1, §2
This is another data set of the same source.

The test system of series [3] is TiPARP mRNA. The protocol:
as §1, §2
This is another data set of the same source.

Series [4] has as its system HCT116. Nature of the series: IC50 in HCT116 cell line. Format: cell-based. As to conditions: Homo sapiens, HCT-116.
Series [5] has as its system SKBR3 (ER neg.). Nature of the series: IC50 in SKBR3 (ER neg.) cell line. The following applies: Homo sapiens, SK-BR-3. It is filed as cell-based.
Series [6] has as its system MCF-7 (ER pos.). Nature of the series: IC50 in MCF-7 (ER pos.) cell line. Format: cell-based. As to conditions: Homo sapiens, MCF7.
Series [7] has as its system HCT116. Nature of the series: Growth inhibition IC50 in HCT116 cells, control vs TiPARP knockdown. It is filed as cell-based. As to conditions: Homo sapiens. The protocol: (§3) For transient overexpression of proteins of interest, cells were transfected with expression vectors using FuGene 6 (Promega, E2691) according to the manufacturer's protocol. To stably knock down TiPARP, lentivirus was produced by transfecting HEK 293T cells with pCMV-ΔR8.2 (packaging vector), pM2D.G (envelope vector) and shRNAs (Sigma). Virus-containing medium was harvested 24 hr after transfection. Target ceils were seeded in a 6-well plate 20 hr prior to transduction (3×10^5 cells per well). At the confluence of 50%, target cells were transduced with virus particles in medium supplemented with 5 μg/ml polybrene (Sigma), and incubated for 6 hr. Remove supernatant and add fresh medium to the cells. 72 hr after infection, 2 μg/mL puromycin was added to the cell culture media for 10 days to select stably transduced target cells.
(§4) IC50 values for Biochanin A was measured in HCT116, SKBR3 and MCF-7 cell lines where TiPARP was knocked down.

Series [8] has as its system SKBR3. Nature of the series: Growth inhibition IC50 in SKBR3 cells, control vs TiPARP knockdown. It is filed as cell-based. The following applies: Homo sapiens. The protocol: as §3, §4
In series [9] the test system is MCF-7. Nature of the series: Growth inhibition IC50 in MCF-7 cells, control vs TiPARP knockdown. It is filed as cell-based. As to conditions: Homo sapiens. The protocol: as §3, §4
The test system of series [10] is TiPARP mRNA. Nature of the series: RT-PCR analysis of TiPARP mRNA level in HEK 293T treated with hypoxia-mimetic agents. The following applies: FIG. 1C. It is filed as cell-based, human. An excerpt:
FIGS. 1A-1F. TiPARP is a direct target gene of HIFs. (A) A schematic representation of TiPARP promoter. Core sequence of hypoxia-response element (HRE) is highlighted in red. (B) Expression of TiPARP mRNA in HCT116 and MCF-7 cells analyzed by qRT-PCR under normoxia/hypoxia (mean and s.d. of three independent experiments). (C) RT-PCR analysis of TiPARP mRNA level in HEK 293T treated with hypoxia-mimetic agent DMOG and DFO, or transfected with HA tagged HIF-1α. Expression of endogenous or HA-HIF-1α was detected by HIF-1α antibody on western blot (bottom), (D) Schematic representation of the luciferase reporter construct with wild type (WT) or mutated (Mut) HRE. (E) HIF-1α transactivation measured by luciferase reporter with WT or mutant HRE from TiPARP promoter. Transfection efficiencies were normalized to co-transfected Renilla-luciferase. Mean and standard deviation (s.d.) correspond to four technical replicates, representative of three independent experiments. NS, not significant. (F) ChIP assay assessing the chromatin binding of HIF-1α to HRE in TiPARP promoter, RNA polymerase II (Pol II) was used as a positive control.
TiPARP was previously characterized as a TCDD-responsive gene regulated by AHR (Ma, Q. Arch Biochem Biophys 404, 309-316 (2002); Ma, Q. et al, Biochem Biophys Res Commun 289, 499-506, (2001)). […]

Series [11] deals with TiPARP mRNA. As to conditions: human. The protocol: as §1, §2
The subject of series [12] is MDA-MB-231 (ER negative). Nature of the series: IC50 in MDA-MB-231 (ER negative) cell line. It is filed as cell-based. The following applies: Homo sapiens.
Series [13] relates to MDA-MB-468 (ER negative). Nature of the series: IC50 in MDA-MB-468 (ER negative) cell line. As to conditions: Homo sapiens. Format: cell-based.
The test system of series [14] is BT549 (ER negative). Nature of the series: IC50 in BT549 (ER negative) cell line. Format: cell-based. As to conditions: Homo sapiens, BT-549.
Series [15] deals with HME1 (normal mammary epithelial cell). Nature of the series: IC50 in HME1 (normal mammary epithelial cell). It is filed as cell-based.
For series [16], the system named is cMyc protein levels. Nature of the series: cMyc protein levels in TiPARP-overexpressing HCT 116C cells with protease inhibitor treatment. It is filed as cell-based, human. As to conditions: 20 μM, over 2 hours, FIG. 10B. From the text:
FIGS. 10A-10E. (A) Overexpression of active TiPARP decreases cMyc protein levels. […] (B) TiPARP regulates cMyc protein levels by regulating the protein degradation pathway. […] (D) Knockdown of TiPARP in HCT116 cells caused ERα protein levels to increase. (E) Knockdown of TiPARP in MCF-7 cells caused ERα protein levels to increase.
The inventors also observed that overexpression of active TiPARP decreases cMyc protein levels.
The inventors also discovered the TiPARP regulates cMyc protein levels by regulating the protein degradation pathway.

On to `COc1ccc(-c2coc3cc(O)cc(O)c3c2=O)cc1` [Biochanin A], for which the “TiPARP mRNA fold induction” value in [1] (human) was determined as 5.6 fold; in series [2] (human), 8.8 fold; in [3] (human) it was 2.5 fold. In addition, the negative logarithm of the IC50 (pIC50) (usually the negative decadic logarithm of the IC50, by convention in mol/L) in [4] is 4.70; in series [5] it was 4.70; in series [6] it was 4.71; in series [7] (HCT-116, HCT116, Ctrl) it was 4.52; in series [7] (HCT-116, HCT116, TiPARP KD (40%)), 4.26; in series [8] (SK-BR-3, SKBR3, Ctrl) it was 4.28. In addition, the pIC50 in [8] (SK-BR-3, SKBR3, TiPARP KD (40%)) was 4.08; in series [9] (MCF7, MCF-7, Ctrl) it was 4.03; in series [9] (MCF7, MCF-7, TiPARP KD (40%)), 3.76.

As to `CC(=O)N(O)CCCCCNC(=O)CCC(=O)N(O)CCCCCNC(=O)CCC(=O)N(O)CCCCCN` [DFO, desferrioxamine], the “TiPARP mRNA level” value in series [10] is on record as “increased”.

In the case of `COC(=O)CNC(=O)C(=O)OC` [DMOG, dimethyloxalylglycine], the “TiPARP mRNA level” value in [10] was “increased”.

As to `c1ccc2c(Cc3c[nH]c4ccccc34)c[nH]c2c1` [Diindolylmethane, diindolylmethane], the “TiPARP mRNA fold induction” value in series [1] (human) stood at 3.3 fold; in series [2] (human) it was 4.2 fold; in [3] (human), 8.0 fold; in series [11] it was 3.2 fold. In addition, the pIC50 is 4.41 in series [4]; 4.35 in series [5]; 4.51 in [6]; 4.32 in series [12]; 4.87 in [13]; 4.49 in series [14]. This compound showed a pIC50 in series [15] of 4.29.

Take `COc1ccc(-c2coc3cc(O)ccc3c2=O)cc1` [Formonometin, formonometin]: the “TiPARP mRNA fold induction” value stood at 1.7 fold in series [1], 2.5 fold in [2] and 2.3 fold in [3].

For the compound `CC(C)C[C@@H](C=O)NC(=O)[C@H](CC(C)C)NC(=O)[C@H](CC(C)C)NC(=O)OCc1ccccc1` [MG132] (Cbz-Leu-Leu-Leu-aldehyde), in [16], the “effect on TiPARP-overexpression-induced decrease of cMyc protein levels” value was “effectively blocked the effect of TiPARP overexpression”.

On to `COc1ccc2[nH]c([S+]([O-])Cc3ncc(C)c(OC)c3C)nc2c1` (stereo not drawn) [Omerprazole, omeprazole], for which the results for the “TiPARP mRNA fold induction” value in [1] (human), in series [2] (human) and in [3] (human) were 0.81 fold, 2.3 fold and 1.7 fold, respectively.

With `Oc1ccc(C=Cc2cc(O)cc(O)c2)cc1` [Resveratrol, resveratrol], the pIC50 is 4.34 in [4]; 4.45 in series [5]; 4.56 in series [6]; 4.04 in [12]; 4.01 in series [13]; 4.64 in [14]. In [15], this compound had a pIC50 of 3.72.

With `OCc1c[nH]c2ccccc12` [indole-3-carbinol], the entries for the “TiPARP mRNA fold induction” value in [1], in series [2] and in [3] were 1.5 fold, 1.4 fold and 1.4 fold, respectively.
